# What was measured:
# [1] = target: T1, Histone-lysine N-methyltransferase EHMT2 (Homo sapiens, UniProt Q96KQ7); assay: Inhibition of human G9a using biotinylated-H3K9 peptide as substrate after 1 hr in presence of SAM by TR-FRET assay
# T1 sequence (Q96KQ7 whole entry): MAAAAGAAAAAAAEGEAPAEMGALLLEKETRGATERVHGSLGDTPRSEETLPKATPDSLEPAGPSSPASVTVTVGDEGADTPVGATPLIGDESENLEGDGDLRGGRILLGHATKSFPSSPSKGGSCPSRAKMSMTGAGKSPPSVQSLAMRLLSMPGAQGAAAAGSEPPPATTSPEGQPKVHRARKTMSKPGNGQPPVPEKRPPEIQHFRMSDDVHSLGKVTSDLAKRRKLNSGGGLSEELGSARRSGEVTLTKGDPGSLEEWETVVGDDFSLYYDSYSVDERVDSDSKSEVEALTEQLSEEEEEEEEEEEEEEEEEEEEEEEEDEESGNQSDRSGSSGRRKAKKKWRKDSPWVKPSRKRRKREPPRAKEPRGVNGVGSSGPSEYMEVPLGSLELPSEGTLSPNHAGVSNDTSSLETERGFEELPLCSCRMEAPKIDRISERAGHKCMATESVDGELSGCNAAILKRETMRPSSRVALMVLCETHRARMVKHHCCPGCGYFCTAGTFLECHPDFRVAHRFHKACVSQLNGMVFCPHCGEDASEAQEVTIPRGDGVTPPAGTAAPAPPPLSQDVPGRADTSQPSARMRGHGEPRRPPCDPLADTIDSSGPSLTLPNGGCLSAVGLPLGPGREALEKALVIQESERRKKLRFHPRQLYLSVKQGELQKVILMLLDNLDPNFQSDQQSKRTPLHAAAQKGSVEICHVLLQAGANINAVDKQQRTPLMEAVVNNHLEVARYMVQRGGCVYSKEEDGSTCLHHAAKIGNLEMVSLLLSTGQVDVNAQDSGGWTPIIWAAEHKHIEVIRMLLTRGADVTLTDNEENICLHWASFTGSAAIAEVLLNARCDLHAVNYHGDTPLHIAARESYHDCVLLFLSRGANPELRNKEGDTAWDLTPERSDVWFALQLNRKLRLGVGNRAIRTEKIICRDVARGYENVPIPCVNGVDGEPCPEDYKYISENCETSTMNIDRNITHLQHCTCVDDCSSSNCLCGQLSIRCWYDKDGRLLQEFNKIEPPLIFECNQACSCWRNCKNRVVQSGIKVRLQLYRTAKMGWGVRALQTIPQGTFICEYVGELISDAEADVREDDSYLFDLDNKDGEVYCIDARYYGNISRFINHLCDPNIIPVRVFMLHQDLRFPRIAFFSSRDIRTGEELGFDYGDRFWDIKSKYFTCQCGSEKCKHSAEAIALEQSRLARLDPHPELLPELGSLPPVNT
# [2] = target: DNA (cytosine-5)-methyltransferase 1 (Homo sapiens, UniProt P26358); assay: Inhibition of human DNMT1 using polydeoxyinosine polydeoxycytosine DNA as substrate after 15 mins in presence of SAM by TR-FRET assay
# [3] = Permeability of the compound at 50 uM after 18 hrs by PAMPA; assay type: ADME; details: read-out: permeability
# OCI-Ly10 = assay: Growth inhibition of human OCI-LY10 cells after 48 hrs by MTS assay; assay type: functional; details: OCI-Ly10, 48 h
# MV4-11 = assay: Growth inhibition of human MV4-11 cells after 48 hrs by MTS assay; assay type: functional; details: MV4-11, 48 h
# CYP1A2 = target: T2, CYP1A2 (Homo sapiens, UniProt P05177); assay: Inhibition of CYP1A2 in human liver microsomes at 10 uM after 10 mins in presence of NADPH by LC-MS/MS analysis relative to control; assay type: ADME
# T2 sequence (P05177 whole entry): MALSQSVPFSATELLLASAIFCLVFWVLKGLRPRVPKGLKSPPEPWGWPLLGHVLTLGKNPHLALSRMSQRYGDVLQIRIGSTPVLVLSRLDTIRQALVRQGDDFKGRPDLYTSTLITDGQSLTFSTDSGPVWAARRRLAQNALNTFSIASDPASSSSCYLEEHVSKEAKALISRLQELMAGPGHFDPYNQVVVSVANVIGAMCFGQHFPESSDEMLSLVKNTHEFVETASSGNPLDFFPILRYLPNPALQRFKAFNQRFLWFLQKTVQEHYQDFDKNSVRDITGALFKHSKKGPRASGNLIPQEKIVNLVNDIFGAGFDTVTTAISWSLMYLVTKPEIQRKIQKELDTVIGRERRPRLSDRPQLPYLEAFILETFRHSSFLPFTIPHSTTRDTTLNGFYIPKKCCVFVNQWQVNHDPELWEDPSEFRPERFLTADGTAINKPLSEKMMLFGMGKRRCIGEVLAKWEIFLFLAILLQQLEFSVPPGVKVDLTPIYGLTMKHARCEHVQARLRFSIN
# CYP2C9 = CYP2C9 (Homo sapiens, UniProt P11712); assay: Inhibition of CYP2C9 in human liver microsomes at 10 uM after 10 mins in presence of NADPH by LC-MS/MS analysis relative to control; assay type: ADME
# CYP3A4 = CYP3A4 (Homo sapiens, UniProt P08684); assay: Inhibition of CYP3A4 in human liver microsomes at 10 uM after 10 mins in presence of NADPH by LC-MS/MS analysis relative to control; assay type: ADME
# [4] = Metabolic stability in human liver microsomes assessed as parent compound remaining at 1 uM preincubated for 10 mins followed by NADP addition after 20 mins by LC-MS/MS analysis; assay type: ADME, microsome; details: liver microsomes, read-out: Stability
# [5] = Half life in human liver microsomes at 1 uM preincubated for 10 mins followed by NADP addition after 20 mins by LC-MS/MS analysis; assay type: ADME, microsome; details: liver microsomes
# [6] = AUC (0 to 24 hrs) in RARG2-/-gammac-/- Balb/c mouse at 5 mg/kg, iv administered as single dose by LC-MS/MS analysis; assay type: ADME, organism-based; design: dose 5 mg/kg, time < 24 hr, route intravenous; details: in vivo
# [7] = Half life in RARG2-/-gammac-/- Balb/c mouse at 5 mg/kg, iv administered as single dose by LC-MS/MS analysis; assay type: ADME, organism-based; details: in vivo
# [8] = Volume of distribution at steady state in RARG2-/-gammac-/- Balb/c mouse at 5 mg/kg, iv administered as single dose by LC-MS/MS analysis; assay type: ADME, organism-based; details: in vivo, read-out: Vdss
# Chain of DNA (cytosine-5)-methyltransferase 1 (P26358 whole entry): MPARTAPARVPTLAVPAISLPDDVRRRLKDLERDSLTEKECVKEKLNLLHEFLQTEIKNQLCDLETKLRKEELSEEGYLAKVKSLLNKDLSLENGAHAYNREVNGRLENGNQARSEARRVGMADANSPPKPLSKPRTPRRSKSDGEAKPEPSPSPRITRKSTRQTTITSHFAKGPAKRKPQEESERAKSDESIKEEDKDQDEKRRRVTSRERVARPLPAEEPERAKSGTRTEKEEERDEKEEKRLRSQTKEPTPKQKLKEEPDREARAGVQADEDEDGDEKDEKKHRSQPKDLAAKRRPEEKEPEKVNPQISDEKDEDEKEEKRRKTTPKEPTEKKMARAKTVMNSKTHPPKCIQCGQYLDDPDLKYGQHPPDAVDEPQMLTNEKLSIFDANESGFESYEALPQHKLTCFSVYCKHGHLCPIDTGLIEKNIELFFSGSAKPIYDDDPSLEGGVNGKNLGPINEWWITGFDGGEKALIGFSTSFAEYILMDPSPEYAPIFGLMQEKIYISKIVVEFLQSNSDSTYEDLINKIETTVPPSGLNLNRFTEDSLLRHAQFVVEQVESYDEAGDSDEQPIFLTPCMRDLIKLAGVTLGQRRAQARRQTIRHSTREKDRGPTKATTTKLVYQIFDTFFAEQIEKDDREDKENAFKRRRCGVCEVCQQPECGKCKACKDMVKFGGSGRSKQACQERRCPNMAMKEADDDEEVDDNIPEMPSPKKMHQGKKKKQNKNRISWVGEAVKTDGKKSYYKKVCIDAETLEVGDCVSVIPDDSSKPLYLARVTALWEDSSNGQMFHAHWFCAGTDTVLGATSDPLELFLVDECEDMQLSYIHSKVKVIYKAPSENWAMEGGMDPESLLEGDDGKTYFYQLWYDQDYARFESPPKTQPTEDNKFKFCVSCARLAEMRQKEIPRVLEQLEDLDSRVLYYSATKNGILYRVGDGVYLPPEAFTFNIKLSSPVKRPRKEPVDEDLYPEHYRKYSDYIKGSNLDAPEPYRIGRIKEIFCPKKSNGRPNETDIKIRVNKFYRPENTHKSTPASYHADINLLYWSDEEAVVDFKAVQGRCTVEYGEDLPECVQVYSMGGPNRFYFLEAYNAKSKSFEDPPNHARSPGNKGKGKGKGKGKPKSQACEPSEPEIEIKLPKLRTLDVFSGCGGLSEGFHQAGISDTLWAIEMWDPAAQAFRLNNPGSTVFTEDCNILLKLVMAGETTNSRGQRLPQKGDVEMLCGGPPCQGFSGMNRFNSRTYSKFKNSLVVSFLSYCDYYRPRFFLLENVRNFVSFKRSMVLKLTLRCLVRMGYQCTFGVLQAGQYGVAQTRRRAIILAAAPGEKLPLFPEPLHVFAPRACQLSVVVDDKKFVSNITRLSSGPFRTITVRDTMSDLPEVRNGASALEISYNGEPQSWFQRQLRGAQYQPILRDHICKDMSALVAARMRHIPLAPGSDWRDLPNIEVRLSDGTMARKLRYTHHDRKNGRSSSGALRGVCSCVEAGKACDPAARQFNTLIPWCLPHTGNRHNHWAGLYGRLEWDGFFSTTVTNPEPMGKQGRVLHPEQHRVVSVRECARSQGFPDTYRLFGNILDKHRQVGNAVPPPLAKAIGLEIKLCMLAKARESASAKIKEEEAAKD
# Chain of CYP2C9 (P11712 whole entry): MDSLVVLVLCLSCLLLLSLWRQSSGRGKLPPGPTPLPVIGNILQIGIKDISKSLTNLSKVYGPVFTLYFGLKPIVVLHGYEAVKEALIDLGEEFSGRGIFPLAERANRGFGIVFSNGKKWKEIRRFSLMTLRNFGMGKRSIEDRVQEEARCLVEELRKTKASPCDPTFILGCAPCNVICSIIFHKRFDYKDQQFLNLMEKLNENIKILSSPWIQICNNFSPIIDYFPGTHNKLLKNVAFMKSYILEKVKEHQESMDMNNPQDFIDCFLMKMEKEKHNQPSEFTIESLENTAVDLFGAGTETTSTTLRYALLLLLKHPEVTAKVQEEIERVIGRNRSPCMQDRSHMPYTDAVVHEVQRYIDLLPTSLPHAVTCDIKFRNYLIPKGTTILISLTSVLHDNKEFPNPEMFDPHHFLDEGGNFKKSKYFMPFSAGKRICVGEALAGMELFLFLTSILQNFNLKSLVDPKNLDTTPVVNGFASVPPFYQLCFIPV
# Chain of CYP3A4 (P08684 whole entry): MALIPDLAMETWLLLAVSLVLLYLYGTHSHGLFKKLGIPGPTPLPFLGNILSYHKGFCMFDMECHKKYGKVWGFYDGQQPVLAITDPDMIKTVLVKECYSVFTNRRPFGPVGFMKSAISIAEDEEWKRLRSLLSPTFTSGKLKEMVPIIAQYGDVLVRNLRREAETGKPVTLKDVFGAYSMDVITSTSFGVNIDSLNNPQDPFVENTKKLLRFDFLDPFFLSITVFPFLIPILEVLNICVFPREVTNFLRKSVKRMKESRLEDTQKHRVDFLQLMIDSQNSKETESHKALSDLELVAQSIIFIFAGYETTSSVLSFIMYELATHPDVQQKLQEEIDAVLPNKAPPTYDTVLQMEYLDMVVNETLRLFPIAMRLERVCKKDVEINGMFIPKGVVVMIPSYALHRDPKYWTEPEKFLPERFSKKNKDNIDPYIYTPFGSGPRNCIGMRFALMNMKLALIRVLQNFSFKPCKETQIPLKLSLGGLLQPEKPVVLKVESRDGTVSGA
smiles,measurement,setting,value
COc1cc2c(NC3CCN(C4CC4)CC3)cc(-c3ccc(C)o3)nc2cc1OCCCN1CCCC1,IC50,[1],22 nM
same,IC50,[2],413 nM
same,"Papp at 18 h, 50 µM",[3],4.04 ×10⁻⁶ cm/s
same,GI50,OCI-Ly10,94 nM
same,GI50,MV4-11,1590 nM
same,"inhibition at 10 min, 10 µM",CYP1A2,28.6%
same,"inhibition at 10 min, 10 µM",CYP2C9,8%
same,"inhibition at 10 min, 10 µM",CYP3A4,4.6%
same,"remaining at 20 min, 1 µM",[4],97%
same,half-life at 1 µM,[5],> 2.4 h
same,AUC(0-t) at 24 h,[6],8.79 µM·h
same,half-life,[7],10.4 h
same,Vd,[8],11.9 L/kg

# — ChEMBL document CHEMBL4130634, “Discovery of Reversible DNA Methyltransferase and Lysine Methyltransferase G9a Inhibitors with Antitumoral in Vivo Efficacy” (J Med Chem, 2018)
